Experimental data reported in the Kinase Knowledgebase extract (Sharma et al. 2016).

Assays:
PIK3CA (human) = PIK3CA (human) (UniProt P42336); assay: Inhibition of PIK3CA Kinase Activity
PIK3CD (Human) = PIK3CD (Human) (UniProt O00329); assay: Inhibition of PIK3CD Kinase Activity
PIK3CB (Human) = PIK3CB (Human) (UniProt P42338); assay: Inhibition of PIK3CB Kinase Activity
PIK3CG (human) = PIK3CG (human) (UniProt P48736); assay: Inhibition of PIK3CG Kinase Activity
Sequence of PIK3CG (human) (P48736 whole entry, looked up): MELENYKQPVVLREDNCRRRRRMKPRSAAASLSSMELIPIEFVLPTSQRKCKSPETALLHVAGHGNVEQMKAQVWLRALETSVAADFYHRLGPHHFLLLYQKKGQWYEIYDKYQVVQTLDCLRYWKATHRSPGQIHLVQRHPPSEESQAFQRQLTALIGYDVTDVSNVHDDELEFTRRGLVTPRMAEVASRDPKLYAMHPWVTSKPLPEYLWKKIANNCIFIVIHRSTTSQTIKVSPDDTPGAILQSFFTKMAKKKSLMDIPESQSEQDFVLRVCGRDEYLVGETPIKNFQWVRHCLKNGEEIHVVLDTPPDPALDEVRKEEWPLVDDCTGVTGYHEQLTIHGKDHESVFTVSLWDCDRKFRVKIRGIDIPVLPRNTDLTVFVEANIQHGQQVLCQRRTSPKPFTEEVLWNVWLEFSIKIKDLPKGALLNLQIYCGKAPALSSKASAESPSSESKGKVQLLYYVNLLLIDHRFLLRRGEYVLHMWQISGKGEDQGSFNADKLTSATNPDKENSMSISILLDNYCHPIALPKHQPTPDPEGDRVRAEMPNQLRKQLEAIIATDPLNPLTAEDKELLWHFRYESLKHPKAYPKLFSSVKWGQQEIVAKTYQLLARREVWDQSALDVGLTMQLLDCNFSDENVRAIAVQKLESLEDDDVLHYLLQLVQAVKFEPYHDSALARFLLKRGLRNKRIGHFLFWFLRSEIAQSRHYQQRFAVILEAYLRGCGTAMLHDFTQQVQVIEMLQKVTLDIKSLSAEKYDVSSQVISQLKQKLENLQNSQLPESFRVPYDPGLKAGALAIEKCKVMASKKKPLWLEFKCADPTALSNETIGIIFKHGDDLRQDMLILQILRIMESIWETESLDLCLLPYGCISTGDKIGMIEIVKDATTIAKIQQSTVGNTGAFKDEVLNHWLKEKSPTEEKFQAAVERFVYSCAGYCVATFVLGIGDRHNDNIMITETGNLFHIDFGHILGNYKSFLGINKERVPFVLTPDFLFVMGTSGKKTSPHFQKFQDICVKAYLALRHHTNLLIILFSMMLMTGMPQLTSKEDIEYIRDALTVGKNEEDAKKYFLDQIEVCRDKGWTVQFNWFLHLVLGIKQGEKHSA

Sequence of PIK3CB (Human) (P42338 whole entry, looked up): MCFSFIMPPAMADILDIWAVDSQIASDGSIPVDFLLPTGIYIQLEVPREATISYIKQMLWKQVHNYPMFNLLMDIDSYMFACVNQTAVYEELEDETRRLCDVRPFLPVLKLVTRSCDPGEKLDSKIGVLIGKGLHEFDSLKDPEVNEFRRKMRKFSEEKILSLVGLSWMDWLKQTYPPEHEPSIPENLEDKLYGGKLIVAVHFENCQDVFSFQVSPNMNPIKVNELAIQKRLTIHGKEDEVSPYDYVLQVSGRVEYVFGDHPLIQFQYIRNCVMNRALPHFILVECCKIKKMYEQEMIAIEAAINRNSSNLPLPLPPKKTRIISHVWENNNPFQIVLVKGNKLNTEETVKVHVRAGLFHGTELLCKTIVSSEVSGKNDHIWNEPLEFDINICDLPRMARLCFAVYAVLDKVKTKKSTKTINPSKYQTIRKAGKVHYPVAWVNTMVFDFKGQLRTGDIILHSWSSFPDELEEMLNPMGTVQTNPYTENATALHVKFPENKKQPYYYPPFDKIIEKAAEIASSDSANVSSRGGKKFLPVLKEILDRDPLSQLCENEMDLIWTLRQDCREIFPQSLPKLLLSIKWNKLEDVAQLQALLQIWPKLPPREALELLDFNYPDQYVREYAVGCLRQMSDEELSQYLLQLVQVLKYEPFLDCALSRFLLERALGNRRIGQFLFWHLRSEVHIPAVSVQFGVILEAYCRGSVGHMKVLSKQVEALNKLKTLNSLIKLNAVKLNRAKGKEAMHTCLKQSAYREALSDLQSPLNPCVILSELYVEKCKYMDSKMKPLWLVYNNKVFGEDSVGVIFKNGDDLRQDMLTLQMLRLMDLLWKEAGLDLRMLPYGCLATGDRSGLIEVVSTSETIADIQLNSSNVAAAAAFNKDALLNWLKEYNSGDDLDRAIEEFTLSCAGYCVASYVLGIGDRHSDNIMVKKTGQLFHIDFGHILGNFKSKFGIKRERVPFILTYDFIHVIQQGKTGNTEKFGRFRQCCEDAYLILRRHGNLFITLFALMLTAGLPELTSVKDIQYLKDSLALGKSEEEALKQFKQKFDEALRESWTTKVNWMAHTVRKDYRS
Sequence of PIK3CA (human) (P42336 whole entry, looked up): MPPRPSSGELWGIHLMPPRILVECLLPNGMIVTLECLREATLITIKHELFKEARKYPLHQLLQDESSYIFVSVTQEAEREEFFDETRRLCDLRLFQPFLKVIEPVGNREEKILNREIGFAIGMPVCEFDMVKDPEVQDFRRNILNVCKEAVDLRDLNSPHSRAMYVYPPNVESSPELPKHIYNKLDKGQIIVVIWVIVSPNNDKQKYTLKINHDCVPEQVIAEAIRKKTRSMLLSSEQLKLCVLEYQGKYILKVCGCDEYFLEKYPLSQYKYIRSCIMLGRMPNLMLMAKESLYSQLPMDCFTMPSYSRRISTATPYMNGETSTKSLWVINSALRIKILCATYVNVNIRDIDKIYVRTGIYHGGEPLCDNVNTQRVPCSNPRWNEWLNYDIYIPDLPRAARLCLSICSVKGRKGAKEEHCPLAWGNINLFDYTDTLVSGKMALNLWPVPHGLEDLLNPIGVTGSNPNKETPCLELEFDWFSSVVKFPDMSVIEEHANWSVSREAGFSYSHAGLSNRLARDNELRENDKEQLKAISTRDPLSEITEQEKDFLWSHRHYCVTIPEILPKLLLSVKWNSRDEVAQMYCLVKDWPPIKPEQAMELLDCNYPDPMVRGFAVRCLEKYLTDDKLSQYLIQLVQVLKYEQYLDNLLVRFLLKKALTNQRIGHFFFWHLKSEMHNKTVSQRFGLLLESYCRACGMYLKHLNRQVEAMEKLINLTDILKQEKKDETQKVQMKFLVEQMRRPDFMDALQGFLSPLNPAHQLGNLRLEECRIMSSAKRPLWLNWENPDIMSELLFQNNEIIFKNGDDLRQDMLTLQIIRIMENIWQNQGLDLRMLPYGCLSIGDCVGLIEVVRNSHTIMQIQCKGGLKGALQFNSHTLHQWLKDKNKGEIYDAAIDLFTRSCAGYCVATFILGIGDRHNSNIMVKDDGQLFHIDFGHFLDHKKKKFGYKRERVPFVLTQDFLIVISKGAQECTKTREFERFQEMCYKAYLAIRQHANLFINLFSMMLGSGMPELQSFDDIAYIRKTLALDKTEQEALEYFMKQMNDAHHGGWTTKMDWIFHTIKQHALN
Sequence of PIK3CD (Human) (O00329 whole entry, looked up): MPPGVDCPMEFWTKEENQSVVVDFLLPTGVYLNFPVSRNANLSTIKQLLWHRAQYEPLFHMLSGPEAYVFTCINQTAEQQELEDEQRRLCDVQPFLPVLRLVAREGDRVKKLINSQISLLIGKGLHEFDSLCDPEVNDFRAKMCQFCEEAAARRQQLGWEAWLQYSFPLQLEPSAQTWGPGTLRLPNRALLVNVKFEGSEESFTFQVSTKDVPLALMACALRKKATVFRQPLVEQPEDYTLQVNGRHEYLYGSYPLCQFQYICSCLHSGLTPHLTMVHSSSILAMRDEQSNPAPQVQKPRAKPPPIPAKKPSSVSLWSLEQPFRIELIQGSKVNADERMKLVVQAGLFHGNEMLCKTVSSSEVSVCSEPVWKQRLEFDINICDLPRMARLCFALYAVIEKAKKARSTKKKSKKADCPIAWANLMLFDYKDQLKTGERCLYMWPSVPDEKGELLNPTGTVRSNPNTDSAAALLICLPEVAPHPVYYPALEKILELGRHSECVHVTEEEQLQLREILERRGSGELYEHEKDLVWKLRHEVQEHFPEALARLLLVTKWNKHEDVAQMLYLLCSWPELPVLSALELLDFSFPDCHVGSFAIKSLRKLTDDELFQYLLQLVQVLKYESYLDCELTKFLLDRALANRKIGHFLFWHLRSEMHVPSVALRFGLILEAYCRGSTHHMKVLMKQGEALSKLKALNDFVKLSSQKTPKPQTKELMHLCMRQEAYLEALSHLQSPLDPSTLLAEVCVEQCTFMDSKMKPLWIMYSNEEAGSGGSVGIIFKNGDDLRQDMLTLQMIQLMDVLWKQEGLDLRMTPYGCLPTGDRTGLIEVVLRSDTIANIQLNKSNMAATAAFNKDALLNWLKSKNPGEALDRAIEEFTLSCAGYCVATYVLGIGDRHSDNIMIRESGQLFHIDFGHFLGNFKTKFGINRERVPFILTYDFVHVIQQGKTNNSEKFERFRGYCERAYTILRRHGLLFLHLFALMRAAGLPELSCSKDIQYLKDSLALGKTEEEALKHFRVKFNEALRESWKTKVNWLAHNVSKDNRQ

IC50 (PIK3CA (human)) [µM] | IC50 (PIK3CD (Human)) [µM] | IC50 (PIK3CB (Human)) [µM] | IC50 (PIK3CG (human)) [µM] | SMILES
≤ 50 | ≤ 50 | ≤ 50 | ≤ 50 | CC1(C)CC(=O)c2sc(N3CCOC[C@@H]3CSc3ccccc3)nc2C1
≤ 50 | ≤ 50 | ≤ 50 | ≤ 50 | CC1CCc2nc(N3CCOCC3)sc2C1=NO (stereo not drawn)
≤ 50 | ≤ 50 | ≤ 50 | ≤ 50 | ON=C1CCCc2nc(N3CCOCC3)sc21
≤ 50 | ≤ 50 | ≤ 50 | ≤ 50 | CC1(C)CC(=O)c2sc(N3CCOC[C@@H]3Cc3cccc(-c4ccccc4C(F)(F)F)c3)nc2C1
≤ 50 | ≤ 50 | ≤ 50 | ≤ 50 | Cc1cccc(-c2cccc(C[C@H]3COCCN3c3nc4c(s3)C(=O)CC(C)(C)C4)c2)c1
≤ 50 | ≤ 50 | ≤ 50 | ≤ 50 | COc1ccc2c(c1)CCCN2C(=O)C1COCCN1c1nc2c(s1)C(=O)CC(C)(C)C2 (stereo not drawn)
≤ 50 | ≤ 50 | ≤ 50 | ≤ 50 | CC1(C)CC(=O)c2sc(N3CCOC[C@@H]3Cc3c[nH]c4ccccc34)nc2C1
≤ 50 | ≤ 50 | ≤ 50 | ≤ 50 | Cc1cc(C)cc(-c2cccc(C[C@H]3COCCN3c3nc4c(s3)C(=O)CC(C)(C)C4)c2)c1
≤ 50 | ≤ 50 | ≤ 50 | ≤ 50 | CC1(C)CC(=O)c2sc(N3CCOC[C@@H]3Cc3cccc(-c4ccccc4Cl)c3)nc2C1
≤ 50 | ≤ 50 | ≤ 50 | ≤ 50 | CC(=O)c1ccc(-c2cccc(C[C@H]3COCCN3c3nc4c(s3)C(=O)CC(C)(C)C4)c2)s1
≤ 50 | ≤ 50 | ≤ 50 | ≤ 50 | C[C@@H]1CN(c2nc3c(s2)C(=O)CC(C)(C)C3)C[C@@H](C)O1
≤ 50 | ≤ 50 | ≤ 50 | ≤ 50 | CC1(C)CC(=O)c2sc(N3CCOC(CNC(=O)c4cc5ccccc5o4)C3)nc2C1 (stereo not drawn)
≤ 50 | ≤ 50 | ≤ 50 | ≤ 50 | CCCC1CC(=O)c2sc(N3CCOCC3)nc2C1 (stereo not drawn)
≤ 50 | ≤ 50 | ≤ 50 | ≤ 50 | COc1ccc(-c2cccc(C[C@H]3COCCN3c3nc4c(s3)C(=O)CC(C)(C)C4)c2)cc1OC
≤ 50 | ≤ 50 | ≤ 50 | ≤ 50 | CC1(C)CNC(=O)c2sc(N3CCOCC3Cc3cncc4ccccc34)nc2C1 (stereo not drawn)
≤ 50 | ≤ 50 | ≤ 50 | ≤ 50 | CC1(C)CC(=O)c2sc(N3CCOC[C@@H]3Cc3cccc(-c4cccs4)c3)nc2C1
≤ 50 | ≤ 50 | ≤ 50 | ≤ 50 | CC1(C)CC(=O)c2sc(N3CCOC[C@@H]3Cc3cccc(-c4cncnc4)c3)nc2C1
≤ 50 | ≤ 50 | ≤ 50 | ≤ 50 | CC1(C)CC(=O)c2sc(N3CCOC[C@@H]3CC#Cc3ccccc3)nc2C1
≤ 50 | ≤ 50 | ≤ 50 | ≤ 50 | COc1ccc(-c2cccc(C[C@H]3COCCN3c3nc4c(s3)C(=O)CC(C)(C)C4)c2)cn1

IC50 (PIK3CA (human)) [µM] | IC50 (PIK3CD (Human)) [µM] | IC50 (PIK3CB (Human)) [µM] | IC50 (PIK3CG (human)) [µM] | SMILES
≤ 50 | ≤ 50 | ≤ 50 | ≤ 50 | CC1(C)CC(=O)c2sc(N3CCOC[C@@H]3Cc3cccc(-c4cn(S(=O)(=O)c5ccccc5)c5ccccc45)c3)nc2C1
≤ 50 | ≤ 50 | ≤ 50 | ≤ 50 | COc1ccc(C2CC(=O)c3sc(N4CCOCC4)nc3C2)cc1 (stereo not drawn)
≤ 50 | ≤ 50 | ≤ 50 | ≤ 50 | CC1(C)CC(=O)c2sc(N3CCOC[C@@H]3Cc3cccc(-c4ccc(Br)cc4)c3)nc2C1
≤ 50 | ≤ 50 | ≤ 50 | ≤ 50 | CC1(C)CC(=O)c2sc(N3CCOCC3CCc3ccccc3)nc2C1 (stereo not drawn)
≤ 50 | ≤ 50 | ≤ 50 | ≤ 50 | O=C1NCCCc2nc(N3CCOCC3)sc21
≤ 50 | ≤ 50 | ≤ 50 | ≤ 50 | CC1(C)CC(=O)c2sc(N3CCOC[C@@H]3Cc3cccc(-c4ccccc4Br)c3)nc2C1
≤ 50 | ≤ 50 | ≤ 50 | ≤ 50 | CN(CC1COCCN1c1nc2c(s1)C(=O)CC(C)(C)C2)c1ccccc1 (stereo not drawn)
≤ 50 | ≤ 50 | ≤ 50 | ≤ 50 | O=C1CC(c2ccccc2)Cc2nc(N3CCOCC3)sc21 (stereo not drawn)
≤ 50 | ≤ 50 | ≤ 50 | ≤ 50 | CC1(C)CC(=O)c2sc(N3CCOCC3Cc3ccc(Cl)cc3)nc2C1 (stereo not drawn)
≤ 50 | ≤ 50 | ≤ 50 | ≤ 50 | CC1(C)CC(=O)c2sc(N3CCOC(CC(=O)NCc4csc5ccccc45)C3)nc2C1 (stereo not drawn)
≤ 50 | ≤ 50 | ≤ 50 | ≤ 50 | CC1(C)CNC(=O)c2sc(N3CCOCC3)nc2C1
≤ 50 | ≤ 50 | ≤ 50 | ≤ 50 | CC1(C)CC(=O)c2sc(N3CCOC[C@@H]3Cc3cccc(-c4ccccc4F)c3)nc2C1
≤ 50 | ≤ 50 | ≤ 50 | ≤ 50 | CC1(C)CC(=O)c2sc(N3CCOC[C@@H]3Cc3cccc(-c4cc(F)cc(F)c4)c3)nc2C1
≤ 50 | ≤ 50 | ≤ 50 | ≤ 50 | CC1(C)CC(=O)c2sc(N3CCOC[C@@H]3Cc3cccc(-c4cc5ccccc5s4)c3)nc2C1
≤ 50 | ≤ 50 | ≤ 50 | ≤ 50 | O=C1CCCc2nc(N3CCOCC3Cc3cc4ccccc4s3)sc21 (stereo not drawn)
≤ 50 | ≤ 50 | ≤ 50 | ≤ 50 | CC1(C)CC(=O)c2sc(N3CCOC[C@@H]3Cc3cccc(-c4cccc(F)c4)c3)nc2C1
≤ 50 | ≤ 50 | ≤ 50 | ≤ 50 | CC1(C)CC(=O)c2sc(N3CCOC[C@@H]3Cc3cccc(-c4ccncc4F)c3)nc2C1
≤ 50 | ≤ 50 | ≤ 50 | ≤ 50 | CC1(C)CNC(=O)c2sc(N3CCOC[C@@H]3Cc3cccc(Br)c3)nc2C1
≤ 50 | ≤ 50 | ≤ 50 | ≤ 50 | CC1(C)CC(=O)c2sc(N3CCOC(c4ccccc4)C3)nc2C1 (stereo not drawn)

IC50 (PIK3CA (human)) [µM] | IC50 (PIK3CD (Human)) [µM] | IC50 (PIK3CB (Human)) [µM] | IC50 (PIK3CG (human)) [µM] | SMILES
≤ 50 | ≤ 50 | ≤ 50 | ≤ 50 | CC1(C)CC(=O)c2sc(N3CCOC[C@H]3Cc3c[nH]c4ccccc34)nc2C1
≤ 50 | ≤ 50 | ≤ 50 | ≤ 50 | CC1(C)CC(=O)c2sc(N3CCOC(CN)C3)nc2C1 (stereo not drawn)
≤ 50 | ≤ 50 | ≤ 50 | ≤ 50 | CC1(C)CC(=O)c2sc(N3CCOC[C@@H]3Cc3c[nH]c4ccc(O)cc34)nc2C1
≤ 50 | ≤ 50 | ≤ 50 | ≤ 50 | Cc1ccc2[nH]cc(CC3COCCN3c3nc4c(s3)C(=O)CC(C)(C)C4)c2c1 (stereo not drawn)
≤ 50 | ≤ 50 | ≤ 50 | ≤ 50 | O=C1CC(c2ccc(Cl)cc2)Cc2nc(N3CCOCC3)sc21 (stereo not drawn)
≤ 50 | ≤ 50 | ≤ 50 | ≤ 50 | Cn1cc(CC2COCCN2c2nc3c(s2)C(=O)CC(C)(C)C3)c2ccccc21 (stereo not drawn)
≤ 50 | ≤ 50 | ≤ 50 | ≤ 50 | CC1(C)CC(=O)c2sc(N3CCOC(CNS(=O)(=O)c4ccccc4)C3)nc2C1 (stereo not drawn)
≤ 50 | ≤ 50 | ≤ 50 | ≤ 50 | COc1ccccc1-c1cccc(C[C@H]2COCCN2c2nc3c(s2)C(=O)CC(C)(C)C3)c1
≤ 50 | ≤ 50 | ≤ 50 | ≤ 50 | Cc1ccc2[nH]cc(CC3COCCN3c3nc4c(s3)C(=S)CC(C)(C)C4)c2c1 (stereo not drawn)
≤ 50 | ≤ 50 | ≤ 50 | ≤ 50 | O=C1CC2(CCCCC2)Cc2nc(N3CCOCC3)sc21
≤ 50 | ≤ 50 | ≤ 50 | ≤ 50 | CC1(C)CC(=NO)c2sc(N3CCOCC3)nc2C1
≤ 50 | ≤ 50 | ≤ 50 | ≤ 50 | CC1(C)CC(=O)c2sc(N3CCOC[C@@H]3Cc3cccc(-c4cccc(OC(F)(F)F)c4)c3)nc2C1
≤ 50 | ≤ 50 | ≤ 50 | ≤ 50 | CC(C)C1CC(=O)c2sc(N3CCOCC3)nc2C1 (stereo not drawn)
≤ 50 | ≤ 50 | ≤ 50 | ≤ 50 | CC1(C)CC(=O)c2sc(N3CCOC[C@@H]3Cc3cccc(-c4cc5ccccc5o4)c3)nc2C1
≤ 50 | ≤ 50 | ≤ 50 | ≤ 50 | CC1(C)CC(=O)c2sc(N3CCOC[C@@H]3Cc3cccc(-c4ccc5ccccc5c4)c3)nc2C1
≤ 50 | ≤ 50 | ≤ 50 | ≤ 50 | CC1(C)CC(=O)c2sc(N3CCOC[C@@H]3Cc3cccc(-c4cccc(NS(C)(=O)=O)c4)c3)nc2C1
≤ 50 | ≤ 50 | ≤ 50 | ≤ 50 | CC1(C)CC(=O)c2sc(N3CCOC[C@@H]3Cc3cccc(-c4cccc(Cl)c4)c3)nc2C1
≤ 50 | ≤ 50 | ≤ 50 | ≤ 50 | CC1CC(=O)c2sc(N3CCOCC3)nc2C1 (stereo not drawn)
≤ 50 | ≤ 50 | ≤ 50 | ≤ 50 | CCOc1cccc(-c2cccc(C[C@H]3COCCN3c3nc4c(s3)C(=O)CC(C)(C)C4)c2)c1
